Data on 24 compounds can be found in US20250011881A1, “MYC-HSF1 DUAL AMPLIFICATION AS A BIOMARKER FOR CANCER TREATMENT” (The Trustees of Indiana University, priority 2023, published 2025).

Values joined by “and” are separate entries in the source; they are usually repeats but may differ in a detail not shown here. Equal entries are not always repeated.

The subject of one assay is ovarian cancer cells with (OVCAR8, OVCAR4) or without (OVSAHO, CAOV3) MYC-HSF1 amplification. Kind of assay: Epigenetic inhibitor drug screen, cell viability (Cell Titer Blue). Type of assay: cell-based.
Conditions: not given
Regarding `C/C=C1\NC(=O)[C@H]2CSSCC/C=C/[C@H](CC(=O)N[C@H](C(C)C)C(=O)N2)OC(=O)[C@H](C(C)C)NC1=O` [Romidepsin (FK229, depsipeptide), Romidepsin], the “Non Amp - AMP (POC) 10 uM” value amounted to 4.459 POC. Turning to `O=C(CCCCCCC(=O)NO)NO` [SBHA], the “Non Amp - AMP (POC) 10 uM” value stood at 0.3146 POC. Consider `O=C(NCC(=O)N1CCCC1)Nc1ccc2cnccc2c1` [SGC707], for which the “Non Amp - AMP (POC) 10 uM” value stood at 4.518 POC.

The assay is the same for the next values; noted with them: 10 uM, 48 hrs; average relative cell viability (vs 1% DMSO) of non-amplified cells (OVSAHO, CAOV3) minus that of MYC-HSF1 amplified cells (OVCAR8, OVCAR4); positive = greater response in amplified cells.
Take `c1nc2nc(Nc3ccc(N4CCOCC4)cc3)nc(NC3CCCCC3)c2[nH]1` [Reversine]: the “Non Amp - AMP (POC) 10 uM” value is −6.769 POC. On the same count and under the same terms, with `CS(=O)(=O)O.Cn1cc(C2=C(c3cn(CCCSC(=N)N)c4ccccc34)C(=O)NC2=O)c2ccccc21` [Ro 31-8220 Mesylate] the figure was 3.048 POC; with `O=C(CCCCCCNC(=O)c1cnc(N(c2ccccc2)c2ccccc2)nc1)NO` [Rocilinostat (ACY-1215), Rocilinostat], 32.23 POC.

For `CN1C/C=C/CCOc2cccc(c2)-c2ccnc(n2)Nc2cccc(c2)C1` [SB1317], the “Non Amp - AMP (POC) 10 uM” value is listed as 5.059 POC. As to `CC(C)N(CCCNC(=O)Nc1ccc(C(C)(C)C)cc1)C[C@H]1O[C@@H](n2cc(Br)c3c(N)ncnc32)[C@H](O)[C@@H]1O` [SGC 0946], the “Non Amp - AMP (POC) 10 uM” value stood at 1.268 POC.

Regarding `CN1CCC(CNc2ccc3ncc(-c4cccc(OC(F)(F)F)c4)n3n2)CC1` [SGI-1776 free base], the “Non Amp - AMP (POC) 10 uM” value is listed as −17.37 POC.

In the case of `O=c1[nH]c(=S)[nH]c(-c2ccccc2)c1Cc1c(O)ccc2ccccc12` [SIRT 1/2 Inhibitor IV], the “Non Amp - AMP (POC) 10 uM” value came to 18.95 POC. As to `O=C1NC(=O)/C(=C/c2cccc(C(F)(F)F)c2)S1` [SMI-4a], the “Non Amp - AMP (POC) 10 uM” value is on record as −1.184 POC.

For `Cl.O=C(Nc1ccccc1-c1cn2c(CN3CCNCC3)csc2n1)c1cnc2ccccc2n1` [SRT1720 HCl], the “Non Amp - AMP (POC) 10 uM” value came out at 4.809 POC. Turning to `Cc1nc(-c2cccnc2)sc1C(=O)Nc1ccccc1-c1cn2c(CN3CCOCC3)csc2n1` [SRT2104 (GSK2245840)], the “Non Amp - AMP (POC) 10 uM” value is reported as −1.9 POC.

As for `O=C(/C=C/c1ccccc1)NC(NC(=S)Nc1ccc(Cl)cc1)C(Cl)(Cl)Cl` (stereo not shown) [Sal 003], the “Non Amp - AMP (POC) 10 uM” value is listed as −16.28 POC. Consider `CC(C(=O)Nc1cccc(/N=C/c2c(O)ccc3ccccc23)c1)c1ccccc1` (stereo not shown) [Salermide], for which the “Non Amp - AMP (POC) 10 uM” value is recorded as −13.88 POC. On to `O=C(/C=C/c1ccc(O)c2c1[C@H](C(=O)O[C@H](Cc1ccc(O)c(O)c1)C(=O)O)[C@@H](c1ccc(O)c(O)c1)O2)O[C@H](Cc1ccc(O)c(O)c1)C(=O)O` [Salvianolic acid B], for which the “Non Amp - AMP (POC) 10 uM” value is on record as 2.345 POC. On the same count and under the same terms, next, `Cc1cc(C)nc(SCC(=O)Nc2ncc(Cc3cccc4ccccc34)s2)n1` [SirReal2]: −3.472 POC; `Nc1ncnc2c1ncn2[C@@H]1O[C@H](C[C@@H](N)CC[C@H](N)C(=O)O)[C@@H](O)[C@H]1O` [Sirefungin]: 12.42 POC.

Still in this assay, the particulars now being: 10 uM, 48 hrs; average relative cell viability (vs 1% DMSO) of non-amplified cells (OVSAHO, CAOV3) minus that of MYC-HSF1 amplified cells (OVCAR8, OVCAR4); positive = greater response in amplified cells; 10 µM.
Take `CNCc1ccc(-c2[nH]c3cc(F)cc4c3c2CCNC4=O)cc1` [Rucaparib (AG-014699, PF-01367338), Rucaparib]: the “Non Amp - AMP (POC) 10 uM” value amounted to 0.4948 POC.

As for `CNCc1ccc(-c2[nH]c3cc(F)cc4c3c2CCNC4=O)cc1` [Rucaparib (free base), Rucaparib], the “Non Amp - AMP (POC) 10 uM” value worked out at 8.811 POC.

On to `N#CC[C@H](C1CCCC1)n1cc(-c2ncnc3[nH]ccc23)cn1` [Ruxolitinib (INCB018424), Ruxolitinib], for which the “Non Amp - AMP (POC) 10 uM” value was −4.311 POC. Consider `N#CC[C@H](C1CCCC1)n1cc(-c2ncnc3[nH]ccc23)cn1` [Ruxolitinib phosphate], for which the “Non Amp - AMP (POC) 10 uM” value was 2.659 POC. For the compound `CCCCc1nc2cc(/C=C/C(=O)NO)ccc2n1CCN(CC)CC` [SB939, Pracinostat], the “Non Amp - AMP (POC) 10 uM” value is 42.19 POC. The same measure, in the same setting: with `O=C(CCCCCN1C(=O)c2cccc3cccc(c23)C1=O)NO` [Scriptaid] the figure was 45.24 POC and 29.99 POC.

Staying with this assay, now noted: 10 uM, 48 hrs; average relative cell viability (vs 1% DMSO) of non-amplified cells (OVSAHO, CAOV3) minus that of MYC-HSF1 amplified cells (OVCAR8, OVCAR4); positive = greater response in amplified cells; listed as Pracinostat (SB939), 10 µM.
In the case of `CCCCc1nc2cc(/C=C/C(=O)NO)ccc2n1CCN(CC)CC` [SB939, Pracinostat], the “Non Amp - AMP (POC) 10 uM” value was found to be 22.93 POC.
